Data from patent US20250129103A1, “METHODS FOR TREATMENT OF CANCER” (Frontier Medicines Corporation, priority 2022, published 2025).
In brackets after ≈: the same amount, converted by molar mass.

What was measured:
[1] = biological target: KRAS G12C (GMPPNP-loaded) and cRAF (Ras-binding domain) interaction (Homo sapiens (Human), UniProt P01116, C118S/C51S/C80L/G12C); experiment: Inhibition of KRAS G12C and cRAF binding (AlphaScreen); conditions: KRAS G12C loaded with GMPPNP, cRaf RBD, 2 hours preincubation; read-out: Raf-1 RBD K-Ras IC50
KRAS G12C (GMPPNP-loaded) and cRAF (Ras-binding domain) interaction, sequence (P01116 other isoform, or with tags, fused parts or gaps G12C/C51S/C80L/C118S): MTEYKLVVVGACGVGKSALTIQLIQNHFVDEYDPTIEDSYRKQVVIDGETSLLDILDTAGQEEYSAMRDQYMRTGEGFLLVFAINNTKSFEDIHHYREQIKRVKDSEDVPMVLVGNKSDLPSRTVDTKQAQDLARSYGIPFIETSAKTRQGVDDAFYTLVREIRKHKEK
Procedure, shortened: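 AlphaScreen readout (680 nm excitation, 570 nm emission) of RBD binding after a 60-90 min bead step at room temperature. This step follows 2 h compound exposure of GMPPNP-preloaded KRAS G12C in Hepes pH 7.4 buffer with MgCl2 and 10 μM GMPPNP.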

[2] = biological target: KRAS G12C (GMPPNP-loaded) and PI3Ka (Ras-binding domain) interaction (Homo sapiens (Human), UniProt P01116, C118S/C51S/C80L/G12C); experiment: Inhibition of KRAS G12C and PI3Ka binding (AlphaScreen); conditions: KRAS G12C loaded with GMPPNP, PI3Ka RBD, 2 hours preincubation; read-out: PI3K RBD K-Ras IC50
KRAS G12C (GMPPNP-loaded) and PI3Ka (Ras-binding domain) interaction, sequence (P01116 other isoform, or with tags, fused parts or gaps G12C/C51S/C80L/C118S): as above
Procedure, shortened: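 Biotin-AviTag Cys-light KRAS G12C (aa 1-169, C51S/C80L/C118S), GMPPNP-loaded, 1.5 nM, preincubated 2 h with compound, then His-tagged PI3Ka RBD (aa 157-300, 100 nM) plus AlphaScreen beads added for 60-90 min, RT. Buffer Hepes pH 7.4, 10 μM GMPPNP, 2% DMSO; 10-point 1:3 from 50 μM; 4-parameter IC50.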

[3] = Determination of logD (1-octanol / phosphate buffer pH 7.4); format: physicochemical; conditions: 1-octanol/phosphate buffer, pH 7.4, pH 7.4, 1-octanol/phosphate buffer; read-out: Log D, pH 7.4
Procedure, shortened: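 Each phase analysed by LCMS after 1 h shaking at 800 rpm and centrifugation, room temperature. Phases were mutually saturated 1-octanol and 100 mM phosphate buffer at pH 7.4. LogD derived from the phase concentrations.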

[4] = Determination of kinetic solubility (pH 7.4); format: physicochemical; conditions: phosphate buffer, pH 7.4, aqueous buffer, kinetic from dmso stock, 50 mM phosphate buffer pH 7.4, read-out: Ksol, pH 7.4
Procedure, shortened: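 Solubility taken from filtrate peak areas on a calibration curve (HPLC-UV, LC-MS/MS). Before filtration and centrifugation, compound was shaken for 2 h at room temperature in pH 7.4 50 mM phosphate buffer.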

`N#CC[C@H]1CN(c2nc(OC[C@@]34CCCN3C[C@H](F)C4)nc3c2CCN(c2cccc4ccc(F)c(Cl)c24)C3)CCN1C(=O)/C=C/c1nc(C2COC2)no1` [Example 8, 2-((S)-4-(7-(8-chloro-7-fluoronaphthalen-1-yl)-2-(((2R,7aS)-2-fluorohexahydro-1H-pyrrolizin-7a-yl)methoxy)-5,6,7,8-tetrahydropyrido[3,4-d]pyrimidin-4-yl)-1-((E)-3-(3-(oxetan-3-yl)-1,2,4-oxadiazol-5-yl)acryloyl)piperazin-2-yl)acetonitrile] gave an IC50 [1] of under 10 nM, an IC50 [2] of under 10 nM and a logD [3] of 3.78. The solubility kinetic at 2 h [4] was 0.01 µg/mL (≈ 0.0129 µM).
